Reference: patent US20250170140A1, “PHARMACEUTICAL COMPOSITION FOR PREVENTING OR TREATING CANCER COMPRISING CARNITINE ACYLCARNITINE CARRIER INHIBITOR AND PEROXISOMAL BETA OXIDATION INHIBITOR” (priority 2021, published 2025)
Where two headings read alike, the source gives them in different places.

Key:
Assay type in all cases: cell-based
[1] = tested on: MIA PaCa-2; assay: SRB assay, cancer cell growth, pancreatic cancer cell line MIA PaCa-2
Description: (§1) As a comparison, omeprazole (KN510) and trimetazidine (KN713), a 3-ketoacyl CoA thiolase inhibitor, were co-treated. […] After cell inoculation, 96-well cell culture plates were incubated for 24 hours before the addition of experimental drugs. […] The cells were then incubated in a CO2 incubator for 48 hours, after which the assay was terminated by the addition of cold TCA. Cells were fixed in situ by gently adding 50 μl of cold 50% (w/v) TCA (final concentration: 10% TCA) and incubated at 4° C. for 60 min. The supernatant was discarded, and the plate was washed five times with distilled water and air dried. Sulforhodamine B (SRB) solution (100 μl) of 0.4% (w/v) in 1% acetic acid was added to each well, and the plate was left at room temperature for 10 min. After staining, unbound dye was removed by washing five times with 1% acetic acid, and the plate was air-dried. The bound dye was then solubilized with 10 mM trizma base, and the absorbance was recorded at 515 nm using an automated plate reader. […] The predicted synergistic activity of a combination of the present invention can be calculated using the Colby Equation in Equation 1 (S.R. Colby, Weeds, 1967, pp. 15, 20-22): α and β are the measured anti-cancer activity of each compound alone, and E is the predicted anti-cancer activity of a mixture of α and β as a prediction. In the present invention, the actual measure of anti-cancer activity of the combination treatment was the inhibition rate of cancer cell growth (%), and the predicted value (E) of the combination treatment was measured by substituting it into the above Colby Equation.

[2] = tested on: MDA-MB-231 cells; assay: SRB assay, breast cancer cell line MDA-MB-231
Description: as §1, with “20-22):” for “20-22): α and β are the measured anti-cancer activity of each compound alone, and E is the predicted anti-cancer activity of a mixture of α and β as a prediction.”

[3] = tested on: SF295 cells; assay: SRB assay, glioblastoma cell line SF295
Description: as §1, with “20-22):” for “20-22): α and β are the measured anti-cancer activity of each compound alone, and E is the predicted anti-cancer activity of a mixture of α and β as a prediction.”

[4] = tested on: Hep-3B cells; assay: SRB assay, liver cancer cell line Hep-3B
Description: as §1, with “20-22):” for “20-22): α and β are the measured anti-cancer activity of each compound alone, and E is the predicted anti-cancer activity of a mixture of α and β as a prediction.”

[5] = tested on: K562 cells; assay: SRB assay, leukemia cell line K562
Description: as §1, with “20-22):” for “20-22): α and β are the measured anti-cancer activity of each compound alone, and E is the predicted anti-cancer activity of a mixture of α and β as a prediction.”

[6] = tested on: SR cells; assay: SRB assay, leukemia cell line SR
Description: as §1, with “20-22):” for “20-22): α and β are the measured anti-cancer activity of each compound alone, and E is the predicted anti-cancer activity of a mixture of α and β as a prediction.”

[7] = tested on: A549 cells; assay: SRB assay, lung cancer cells A549
Description: as §1, with “20-22):” for “20-22): α and β are the measured anti-cancer activity of each compound alone, and E is the predicted anti-cancer activity of a mixture of α and β as a prediction.”

[8] = tested on: OVCAR-8 cells; assay: SRB assay, ovarian cancer cells OVCAR-8
Description: as §1, with “20-22):” for “20-22): α and β are the measured anti-cancer activity of each compound alone, and E is the predicted anti-cancer activity of a mixture of α and β as a prediction.”

[9] = tested on: DU-145 cells; assay: SRB assay, prostate cancer cells DU-145
Description: as §1, with “20-22):” for “20-22): α and β are the measured anti-cancer activity of each compound alone, and E is the predicted anti-cancer activity of a mixture of α and β as a prediction.”

[10] = tested on: PANC-1 cells; assay: SRB assay, pancreatic cancer cell line PANC-1
Description: as §1, with “20-22):” for “20-22): α and β are the measured anti-cancer activity of each compound alone, and E is the predicted anti-cancer activity of a mixture of α and β as a prediction.”

[11] = tested on: ACHN cells; assay: SRB assay, renal cell carcinoma cell line ACHN
Description: as §1, with “20-22):” for “20-22): α and β are the measured anti-cancer activity of each compound alone, and E is the predicted anti-cancer activity of a mixture of α and β as a prediction.”

[12] = tested on: AGS cells; assay: SRB assay, stomach cancer cell line AGS
Description: as §1, with “20-22):” for “20-22): α and β are the measured anti-cancer activity of each compound alone, and E is the predicted anti-cancer activity of a mixture of α and β as a prediction.”

[13] = tested on: MKN-28 cells; assay: SRB assay, stomach cancer cell line MKN-28
Description: as §1, with “20-22):” for “20-22): α and β are the measured anti-cancer activity of each compound alone, and E is the predicted anti-cancer activity of a mixture of α and β as a prediction.”

[14] = Homo sapiens, KN510 100 μM, read-out: Inhibition rate of cancer cell growth (%) (Actual value)
[15] = Homo sapiens, KN510 200 μM, read-out: Inhibition rate of cancer cell growth (%) (Actual value)

GI50 ([1]; Homo sapiens, MIA PaCa-2, 48 hours, read-out: GI50 (Half maximal growth inhibition concentration)): 117 µM
Structure (SMILES): COc1ccc2[nH]c([S+]([O-])Cc3ncc(C)c(OC)c3C)nc2c1 (stereo not drawn) [KN510, omeprazole]
inhibition at 100 µM ([1]; Homo sapiens, MIA PaCa-2, MIA PaCa-2 (Example 11), KN510 100 μM, read-out: Inhibition rate of cancer cell growth (%) (Actual value)): 30.2%
inhibition at 200 µM ([1]; Homo sapiens, MIA PaCa-2, MIA PaCa-2 (Example 11), KN510 200 μM, read-out: Inhibition rate of cancer cell growth (%) (Actual value)): 78.2%
inhibition at 200 µM ([1]; Homo sapiens, MIA PaCa-2, MIA PaCa-2, Example 1-3, Table 4, KN510 200 μM, read-out: Inhibition rate of cancer cell growth (%) (Actual value)): 74.1%
Cancer cell growth rate Average (%) ([1]; MIA PaCa-2 (Example 11), KN510 100 μM): 69.78%
Cancer cell growth rate Average (%) ([1]; MIA PaCa-2 (Example 11), KN510 200 μM): 21.75%
Cancer cell growth rate Average (%) ([1]; MIA PaCa-2, Conc. 10^−3M, Table 1): −17.07%
Cancer cell growth rate Average (%) ([1]; MIA PaCa-2, Conc. 10^−4M, Table 1): 68.78%
Cancer cell growth rate Average (%) ([1]; MIA PaCa-2, Conc. 10^−5M, Table 1): 94.56%
Cancer cell growth rate Average (%) ([1]; MIA PaCa-2, Conc. 10^−6M, Table 1): 93.66%
Cancer cell growth rate Average (%) ([1]; MIA PaCa-2, Conc. 10^−7M, Table 1): 97.84%
Cancer cell growth rate Average (%) ([1]; MIA PaCa-2, Conc. 10^−8M, Table 1): 101.17%
Cancer cell growth rate Average (%) ([1]; MIA PaCa-2, Example 1-2, Table 2, KN510 200 μM): 25.89%
Cancer cell growth rate Average (%) ([1]; MIA PaCa-2, comparative example, Table 3, KN510 100 μM): 69.73%
Cancer cell growth rate Average (%) ([1]; MIA PaCa-2, comparative example, Table 3, KN510 200 μM): 35.32%
inhibition at 100 µM [2, 14]: 29.7%
inhibition at 200 µM [2, 15]: 71.9%
Cancer cell growth rate Average (%) ([2]; KN510 100 μM): 70.29%
Cancer cell growth rate Average (%) ([2]; KN510 200 μM): 28.13%
inhibition at 100 µM ([3]; Homo sapiens, SF-295, KN510 100 μM, read-out: Inhibition rate of cancer cell growth (%) (Actual value)): 32%
inhibition at 200 µM ([3]; Homo sapiens, SF-295, KN510 200 μM, read-out: Inhibition rate of cancer cell growth (%) (Actual value)): 63.5%
Cancer cell growth rate Average (%) ([3]; KN510 100 μM): 67.98%
Cancer cell growth rate Average (%) ([3]; KN510 200 μM): 36.53%
inhibition at 100 µM ([4]; Homo sapiens, Hep3B, KN510 100 μM, read-out: Inhibition rate of cancer cell growth (%) (Actual value)): 15.1%
inhibition at 200 µM ([4]; Homo sapiens, Hep3B, KN510 200 μM, read-out: Inhibition rate of cancer cell growth (%) (Actual value)): 40.1%
Cancer cell growth rate Average (%) ([4]; KN510 100 μM): 84.95%
Cancer cell growth rate Average (%) ([4]; KN510 200 μM): 59.89%
inhibition at 100 µM [5, 14]: 44.8%
inhibition at 200 µM [5, 15]: 73%
Cancer cell growth rate Average (%) ([5]; KN510 100 μM): 55.18%
Cancer cell growth rate Average (%) ([5]; KN510 200 μM): 27.01%
inhibition at 100 µM [6, 14]: 35.1%
inhibition at 200 µM [6, 15]: 70.1%
Cancer cell growth rate Average (%) ([6]; KN510 100 μM): 64.90%
Cancer cell growth rate Average (%) ([6]; KN510 200 μM): 29.89%
inhibition at 100 µM [7, 14]: 44.6%
inhibition at 200 µM [7, 15]: 69.7%
Cancer cell growth rate Average (%) ([7]; KN510 100 μM): 55.44%
Cancer cell growth rate Average (%) ([7]; KN510 200 μM): 30.29%
inhibition at 100 µM [8, 14]: 44.5%
inhibition at 200 µM [8, 15]: 63.3%
Cancer cell growth rate Average (%) ([8]; KN510 100 μM): 55.49%
Cancer cell growth rate Average (%) ([8]; KN510 200 μM): 36.66%
inhibition at 100 µM [9, 14]: 50.4%
inhibition at 200 µM [9, 15]: 62.9%
Cancer cell growth rate Average (%) ([9]; KN510 100 μM): 49.59%
Cancer cell growth rate Average (%) ([9]; KN510 200 μM): 37.08%
inhibition at 100 µM [10, 14]: 55.5%
inhibition at 200 µM [10, 15]: 89%
Cancer cell growth rate Average (%) ([10]; KN510 100 μM): 44.47%
Cancer cell growth rate Average (%) ([10]; KN510 200 μM): 10.96%
inhibition at 100 µM [11, 14]: 38.9%
inhibition at 200 µM [11, 15]: 80.1%
Cancer cell growth rate Average (%) ([11]; KN510 100 μM): 61.12%
Cancer cell growth rate Average (%) ([11]; KN510 200 μM): 19.93%
inhibition at 100 µM [12, 14]: 39.6%
inhibition at 200 µM [12, 15]: 69.5%
Cancer cell growth rate Average (%) ([12]; KN510 100 μM): 60.39%
Cancer cell growth rate Average (%) ([12]; KN510 200 μM): 30.51%
inhibition at 100 µM [13, 14]: 50.2%
inhibition at 200 µM [13, 15]: 74.8%
Cancer cell growth rate Average (%) ([13]; KN510 100 μM): 49.80%
Cancer cell growth rate Average (%) ([13]; KN510 200 μM): 25.20%
